One data set has as its target T1, ADORA3 receptor (Homo sapiens, UniProt P0DMS8).
T1 sequence (P0DMS8 1-318): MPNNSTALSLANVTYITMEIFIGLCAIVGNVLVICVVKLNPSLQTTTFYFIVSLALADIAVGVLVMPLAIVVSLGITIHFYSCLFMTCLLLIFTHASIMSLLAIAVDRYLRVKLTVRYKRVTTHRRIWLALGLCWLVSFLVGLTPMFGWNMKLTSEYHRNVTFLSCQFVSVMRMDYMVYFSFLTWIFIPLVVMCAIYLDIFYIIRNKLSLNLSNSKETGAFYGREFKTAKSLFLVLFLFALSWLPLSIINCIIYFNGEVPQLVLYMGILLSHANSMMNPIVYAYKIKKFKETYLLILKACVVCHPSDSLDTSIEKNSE
The data set is described as follows: Agonistic effect on adenosine A3 receptor by FLIPR assay (calcium flux assay). In kind it is cell-based. The following applies: agonist mode. On the procedure:
Example 27: Agonistic Effect of Compound on Adenosine A3 Receptor by FLIPR Assay (Calcium Flux Assay)
First Day: Cell Inoculation
• 1) With regard to ADORA3 receptor, cultured cells were used for inoculation: the culture medium was aspirated and the cells were washed twice with 10 mL of DPBS. 2 mL of 0.05% EDTA-trypsin was added and the cells were incubated at 37° C. for 1 minute. Then 10 mL of the culture medium was added to stop the digestion and the cell suspension was transferred to a 50-mL tapered tube. • 2) The 50-mL tapered tube containing the various cells was centrifuged at 300 g for 5 minutes. • 3) A supernatant was aspirated and no cells should be aspirated. • 4) The cell precipitate was resuspended in 6-8 mL of the culture medium, and then 0.5 mL of the cells were taken out for cell counting by using a Vi-cell XR cell viability analyzer. • 5) The cell suspension was diluted to 1×10^6 cells/mL (20 μL of 20,000 cells per well) in the culture medium and the cells were inoculated into a cell plate (384-well Poly-D-lysine protein-coated plate, Greiner-781946). • 6) The plate was placed in a 37° C./5% CO2 incubator for 16-20 hours. Second Day: • 1) Preparation of 2×Fluo-4 Direct™ uptaking dye • a. Preparation of probenecid solution • 1 mL of FLIPR assay buffer was added to 77 mg of probenecid (provided by Fluo-4 Direct™ calcium assay kit) to be prepared into 250 mM of a probenecid solution. The fresh probenecid solution was used daily. • b. 2×(8 μM) Fluo-4 Direct™ loading dye (per 10 mL)
A vial of the Fluo-4 Direct™ crystal was thawed and then 10 mL of the FLTPR analytical buffer was added to the vial. Then 0.2 mL of 250 mM of a probe solution was added to every 10 mL Fluo-4 Direct™ crystal to a final assay concentration of 2.5 mM. The solution was vortexed and stood for >5 min at a dark place. 2×Fluo-4 Direct™ uptaking dye was freshly prepared daily. • 2) Compound preparation • a. Preparation of compound plate: all reference and test compounds were serially diluted 4-fold in 10 points by using an Echo liquid processor and then 900 nL of the diluted compounds were transferred to a compound plate. • b. 30 μL FLIPR analytical buffer was added to the compound plate and the plate was centrifuged at 300 g for 1 minute. • 3) FLIPR analysis • a. With regard to ADORA3 receptor: firstly, the cell plate was taken out from a culture box. The culture medium was then aspirated and 20 μL of the FLIPR analytical buffer was added. The cell plate was placed in an incubator for 45 minutes and at a room temperature for 15 minutes. • b. To run an experimental solution on […], 10 μL of the FLIPR analytical buffer was transferred from the compound plate to a cell plate, and then the fluorescent signal was read. Then 10 μL of a compound solution was transferred from the compound plate to the cell plate and the fluorescence signal was read. “Max−min” was calculated from Reader 91 to an allowed maximum value. • c. With regard to agonist: activation %=(RLU−LC)/(HC−LC)*100, • wherein RLU=relative light unit, allowed maximum signal was 91; HC=average signal of high concentration agonist; and LC=mean signal of DMSO well. • d. Data were fitted to a model “log (agonist) versus response-variable slope” by using GraphPad Prism 5 to determine an EC50 value. • e. […] 2. Test Result

Data set [1] can be described thus: Pharmacokinetic test of compound in SD rat. In kind it is in vivo. The following applies: SD rats, intragastric administration (IG), cassette dosing. On the procedure:
Example 28: Pharmacokinetic Test of Compound in SD Rat
The animal species used in this experiment were SD rats. There were 3 animals per group. The rats were dosed in cassette format, i.e., multiple (1-6) different compounds were dosed simultaneously to the same group of the SD rats. The vehicle used for the drug was 5% DMSO+5% Solutl+90% ([…] methylcellulose M450), and the administration route was intragastric administration (IG).

Data set [2] has as its target T2, ADORA3 receptor (CHO cells stably expressing ADORA3 receptor) (Homo sapiens, UniProt P0DMS8).
T2 construct: expressed in transfected cells
T2 sequence (P0DMS8 1-318): T1 sequence (P0DMS8 1-318)
The data set is described as follows: Effect of compound on intracellular cAMP level by adenosine A3 receptor agonism. The following applies: forskolin-stimulated. In kind it is cell-based. The method, boiled down: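 Agonism read as change in forskolin-stimulated cAMP by TR-FRET competition (Eu-cAMP tracer, ULight anti-cAMP antibody). Compound tested as 10 three-fold dilutions on ADORA3-CHO cells in buffer containing rolipram, incubated at 37 °C. Hill fit of % activation against log concentration gives EC50.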
On the technique in general: Changes in cAMP serve as a functional read-out for many G protein-coupled receptors.

What is called EC50 is the concentration that produces a half-maximal response.

`CNC(=O)[C@H]1O[C@@H](n2cnc3c(NCc4cccc(C)n4)nc(-c4cncc(F)c4)nc32)[C@H](O)[C@@H]1O` [compound 106]: the half-maximal effective concentration (EC50) at ADORA3 receptor was 17.6 nM; in data set [2], 3.02 nM. Also, the “AUC_D” value in data set [1] was 521.57 kg·ng·h/mL/mg.
`CNC(=O)[C@H]1O[C@@H](n2cnc3c(NCc4cc(C)ccn4)nc(-c4cncc(F)c4)nc32)[C@H](O)[C@@H]1O` [compound 71, (2S,3S,4R,5R)-5-(2-(5-fluoropyridin-3-yl)-6-(((4-methylpyridin-2-yl)methyl)amino)-9H-purin-9-yl)-3,4-dihydroxyl-N-methyltetrahydrofuran-2-carboxamide]: the EC50 at ADORA3 receptor was 1.93 nM; in data set [2] it was below 0.51 nM. Further, in data set [1], the “AUC_D” value was 757.44 kg·ng·h/mL/mg.
Turning to `CNC(=O)[C@H]1O[C@@H](n2cnc3c(NCc4cc(C)ccn4)nc(-c4cccnc4)nc32)[C@H](O)[C@@H]1O` [compound 186, (2S,3S,4R,5R)-3,4-dihydroxyl-N-methyl-5-(6-((4-methylpyridin-2-yl)methylamino)-2-(pyridin-3-yl)-9H-purin-9-yl)-tetrahydrofuran-2-formamide], the EC50 at ADORA3 receptor was 11.8 nM; in data set [2], below 0.51 nM. In data set [1], the “AUC_D” value amounted to 786.27 kg·ng·h/mL/mg.
In the same order, the values of `CNC(=O)[C@H]1O[C@@H](n2cnc3c(NCc4cc(Cl)ccn4)nc(-c4cncc(F)c4)nc32)[C@H](O)[C@@H]1O` [compound 183, (2S,3S,4R,5R)-5-(6-((4-chloropyridin-2-yl)methylamino)-2-(5-fluoropyridin-3-yl)-9H-purin-9-yl)-3,4-dihydroxyl-N-methyl-tetrahydrofuran-2-formamide] are 9.07 nM, below 0.51 nM and 947.63 kg·ng·h/mL/mg.
Regarding `CNC(=O)[C@H]1O[C@@H](n2cnc3c(NCc4cc(C)cc(C)c4)nc(-c4cncc(C)c4)nc32)[C@H](O)[C@@H]1O` [compound 231, (2S,3S,4R,5R)-5-(6-((3,5-dimethylbenzyl)amino)-2-(5-methylpyridin-3-yl)-9H-purin-9-yl)-3,4-dihydroxyl-N-methyltetrahydrofuran-2-carboxamide], the EC50 on ADORA3 receptor came to 11.2 nM. Besides, the “AUC_D” value in data set [1] is 17240.04 kg·ng·h/mL/mg.
Regarding `CNC(=O)[C@H]1OC(n2cnc3c(NCc4cc(C)cc(C)c4)nc(-c4cccnc4)nc32)[C@H](O)[C@@H]1O` (stereo in doubt) [compound 297, (2S,3S,4R,5S)-5-(6-((3,5-dimethylbenzyl)amino)-2-(pyridin-3-yl)-9H-purin-9-yl)-3,4-dihydroxyl-N-methyltetrahydrofuran-2-carboxamide], on ADORA3 receptor, the half-maximal effective concentration (EC50) was 12.9 nM. Also, the “AUC_D” value in data set [1] was found to be 2349.41 kg·ng·h/mL/mg.
For the compound `CNC(=O)[C@H]1O[C@@H](n2cnc3c(NCc4cc(OC)ccn4)nc(-c4cncc(Cl)c4)nc32)[C@H](O)[C@@H]1O` [compound 296, (2S,3S,4R,5R)-5-(2-(5-chloropyridin-3-yl)-6-(((4-methoxypyridin-2-yl)methyl)amino)-9H-purin-9-yl)-3,4-dihydroxyl-N-methyltetrahydrofuran-2-carboxamide], the half-maximal effective concentration (EC50) at ADORA3 receptor came out at 53.6 nM; in data set [2], 1.28 nM.
`CNC(=O)[C@H]1OC(n2cnc3c(NCc4cc(C)cc(C)c4)nc(-c4cncc(OC)c4)nc32)[C@H](O)[C@@H]1O` (stereo in doubt) [compound 298, (2S,3S,4R,5S)-5-(6-((3,5-dimethylbenzyl)amino)-2-(5-methoxypyridin-3-yl)-9H-purin-9-yl)-3,4-dihydroxyl-N-methyltetrahydrofuran-2-carboxamide]: the EC50 on ADORA3 receptor came out at 37 nM. Also, in data set [1], the “AUC_D” value came to 4423.94 kg·ng·h/mL/mg.
Consider `CNC(=O)[C@H]1O[C@@H](n2cnc3c(NCc4cc(C)ccn4)nc(-c4cncc(Cl)c4)nc32)[C@H](O)[C@@H]1O` [compound 293, (2S,3S,4R,5R)-5-(2-(5-chloropyridin-3-yl)-6-(((4-methylpyridin-2-yl)methyl)amino)-9H-purin-9-yl)-3,4-dihydroxyl-N-methyltetrahydrofuran-2-carboxamide], for which the results for the EC50 (at ADORA3 receptor; in data set [2]) were 3.27 nM and below 0.51 nM, respectively. The “AUC_D” value in data set [1] was determined as 2016.46 kg·ng·h/mL/mg.
Take `CNC(=O)[C@H]1O[C@@H](n2cnc3c(NCc4cc(C)ccn4)nc(-c4cncc(OC)c4)nc32)[C@H](O)[C@@H]1O` [compound 312]: the values for the EC50 (on ADORA3 receptor; in data set [2]) were 4.05 nM and below 0.51 nM, respectively. The “AUC_D” value in data set [1] worked out at 1820.66 kg·ng·h/mL/mg.
Take `CNC(=O)[C@H]1O[C@@H](n2cnc3c(NCc4cc(C)ccc4F)nc(-c4cncc(C)c4)nc32)[C@H](O)[C@@H]1O` [compound 193, (2S,3S,4R,5R)-5-(6-(2-fluoro-5-methylbenzylamino)-2-(5-methylpyridin-3-yl)-9H-purin-9-yl)-3,4-dihydroxyl-N-methyl-tetrahydrofuran-2-formamide]: the EC50 at ADORA3 receptor worked out at 10.9 nM. Besides, the “AUC_D” value in data set [1] came out at 2969.40 kg·ng·h/mL/mg.
On to `CNC(=O)[C@H]1O[C@@H](n2cnc3c(NCc4cc(C)ccc4F)nc(-c4cncc(F)c4)nc32)[C@H](O)[C@@H]1O` [compound 192, (2S,3S,4R,5R)-5-(6-(2-fluoro-5-methylbenzylamino)-2-(5-fluoropyridin-3-yl)-9H-purin-9-yl)-3,4-dihydroxyl-N-methyl-tetrahydrofuran-2-formamide], for which, on ADORA3 receptor, the EC50 was 9.24 nM. Moreover, in data set [1], the “AUC_D” value is 3329.08 kg·ng·h/mL/mg.
As for `CNC(=O)[C@H]1O[C@@H](n2cnc3c(NCc4cccc(OC)n4)nc(-c4cncc(Cl)c4)nc32)[C@H](O)[C@@H]1O` [compound 159], the EC50 on ADORA3 receptor turned out to be 59.3 nM; in data set [2], 4.42 nM.
On to `CCNC(=O)[C@H]1O[C@@H](n2cnc3c(NC)nc(-c4cncc(C)c4)nc32)[C@H](O)[C@@H]1O` [compound 72, (2S,3S,4R,5R)-N-ethyl-3,4-dihydroxyl-5-(6-(methylamino)-2-(5-methylpyridin-3-yl)-9H-purin-9-yl)tetrahydrofuran-2-carboxamide], for which the EC50 on ADORA3 receptor was 20.6 nM. The “AUC_D” value in data set [1] stood at 75.08 kg·ng·h/mL/mg.
With `CNC(=O)[C@H]1O[C@@H](n2cnc3c(NCc4cc(C)ccc4F)nc(-c4cncc(OC)c4)nc32)[C@H](O)[C@@H]1O` [compound 194, (2S,3S,4R,5R)-5-(6-(2-fluoro-5-methylbenzylamino)-2-(5-methoxypyridin-3-yl)-9H-purin-9-yl)-3,4-dihydroxyl-N-methyl-tetrahydrofuran-2-formamide], the half-maximal effective concentration (EC50) at ADORA3 receptor was 10.7 nM. In data set [1], the “AUC_D” value amounted to 2043.13 kg·ng·h/mL/mg.
As to `CNC(=O)[C@H]1O[C@@H](n2cnc3c(NCc4cc(Cl)ccn4)nc(-c4cncc(Cl)c4)nc32)[C@H](O)[C@@H]1O` [compound 184, (2S,3S,4R,5R)-5-(6-((4-chloropyridin-2-yl)methylamino)-2-(5-chloropyridin-3-yl)-9H-purin-9-yl)-3,4-dihydroxyl-N-methyl-tetrahydrofuran-2-formamide], the EC50 at ADORA3 receptor is 13 nM; in data set [2], below 0.51 nM.

(Values after patent US12655174B2, “Adenosine A3 receptor agonists, preparation methods and uses thereof” (ZHEJIANG VIMGREEN PHARMACEUTICALS, LTD., priority 2020, dated 2026).)
